# Measured values as given in PMC4347883, “Evaluation of a Triple-Helical Peptide with Quenched Fluorophores for Optical Imaging of MMP-2 and MMP-9 Proteolytic Activity” (Molecules, 2014).
# “Also recorded” adds a separate entry of the source.
# Assays:
# MMP-2 = MMP-2 inhibition by SB-3CT; format: biochemical; conditions: at SB-3CT 72-fold Ki (1 µM)
# [1] = test system: gelatinase positive HT-1080 human fibrosarcoma cells; assay: Confocal fluorescence microscopy of 5FAM6-THP hydrolysis in HT-1080 cells; format: cell-based; conditions: SB-3CT 1 µM pre-incubated 30 min, then 5FAM6-THP 1 µM, 1 h, mean of n = 10 cells
# Excerpt: Two image fields are shown per condition.
# MMP-7 = conditions: cited from earlier work
# human-MMP-2 = target: T1, human-MMP-2 (Homo sapiens, UniProt P08253); conditions: fTHP comparison; cited from earlier work
# T1 construct: purchased Enzo Life Sciences
# T1 sequence (P08253 110-660): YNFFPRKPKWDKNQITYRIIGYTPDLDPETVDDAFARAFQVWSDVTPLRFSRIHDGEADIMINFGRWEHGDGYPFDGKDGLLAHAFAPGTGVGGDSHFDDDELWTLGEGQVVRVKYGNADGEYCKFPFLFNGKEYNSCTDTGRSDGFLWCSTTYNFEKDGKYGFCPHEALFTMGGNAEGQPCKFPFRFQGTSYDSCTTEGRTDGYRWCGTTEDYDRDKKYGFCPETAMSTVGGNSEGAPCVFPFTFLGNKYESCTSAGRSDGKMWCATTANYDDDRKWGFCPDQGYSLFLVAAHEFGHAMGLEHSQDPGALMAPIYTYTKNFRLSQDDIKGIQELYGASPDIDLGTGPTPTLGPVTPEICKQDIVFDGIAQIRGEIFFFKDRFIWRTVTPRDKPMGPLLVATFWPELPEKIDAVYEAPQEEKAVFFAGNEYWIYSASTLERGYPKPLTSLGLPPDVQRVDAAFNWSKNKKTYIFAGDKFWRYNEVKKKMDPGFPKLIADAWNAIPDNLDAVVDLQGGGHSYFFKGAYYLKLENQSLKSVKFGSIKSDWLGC
# Excerpt: (§1) Table 1 Enzyme kinetic parameters for gelatinase mediated hydrolysis of 5FAM-THPs. | column: KM (μM); kcat (s^−1); kcat/KM (M^−1 s^−1)
# human-MMP-9 = target: T2, human-MMP-9 (Homo sapiens, UniProt P14780); conditions: fTHP comparison; cited from earlier work
# T2 construct: purchased Enzo Life Sciences
# Excerpt: as §1
# T2 sequence (P14780 107-707 limits assumed): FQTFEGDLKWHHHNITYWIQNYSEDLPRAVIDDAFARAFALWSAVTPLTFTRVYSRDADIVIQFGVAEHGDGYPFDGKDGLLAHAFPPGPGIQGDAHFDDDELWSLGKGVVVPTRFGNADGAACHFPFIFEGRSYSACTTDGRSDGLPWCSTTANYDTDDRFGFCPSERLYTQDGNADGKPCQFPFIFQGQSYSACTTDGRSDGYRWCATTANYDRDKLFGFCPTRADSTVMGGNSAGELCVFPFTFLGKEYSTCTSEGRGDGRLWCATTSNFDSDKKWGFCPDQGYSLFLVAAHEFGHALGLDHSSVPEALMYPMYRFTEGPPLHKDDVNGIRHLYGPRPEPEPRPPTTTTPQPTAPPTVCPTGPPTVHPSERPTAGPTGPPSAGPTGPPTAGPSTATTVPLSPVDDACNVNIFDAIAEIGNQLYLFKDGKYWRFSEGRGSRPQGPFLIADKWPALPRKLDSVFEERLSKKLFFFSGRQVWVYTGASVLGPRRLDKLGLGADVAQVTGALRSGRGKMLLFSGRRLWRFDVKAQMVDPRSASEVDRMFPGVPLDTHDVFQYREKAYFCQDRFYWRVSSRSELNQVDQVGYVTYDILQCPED
molecule,measurement,setting,value
O=S(=O)(CC1CS1)c1ccc(Oc2ccccc2)cc1 (stereo not shown) [SB-3CT],occupancy of MMP-2 at equilibrium,MMP-2,approximately 99%
same,reduction of 5FAM6-THP fluorescence by gelatinase inhibitor,[1],greatly attenuated; also recorded: greatly reduced fluorescence levels when 5FAM6-THP was incubated with HT-1080 cells by three-fold; also recorded: low levels of fluorescence observed in SB-3CT treated HT-1080 cells
GVPLSLTMGC [MMP-7 substrate bearing a heterologous donor and acceptor pair of near infrared dyes on the N- and C- termini],increase in fluorescence after digestion with MMP-7,MMP-7; after digestion with MMP-7,~7 fold
same,level of quenching,MMP-7; near infrared donor/acceptor dye pair on N- and C-termini,85%
"(GPhP)5GPK(Mca)GPPG~VVGEK(Dnp)GEN(GPhP)5-NH2 [fTHP, fluorogenic THP substrate with 7-methoxycoumarin and 2,4-dinitrophenyl groups conjugated to the ε-amino groups of Lys]",Km,human-MMP-2,4.4 µM
same,kcat,human-MMP-2,0.061 s⁻¹
same,kcat/KM,human-MMP-2,"14,002 M^−1 s^−1"
same,Km,human-MMP-9,8.1 µM
same,kcat,human-MMP-9,0.044 s⁻¹
same,kcat/KM,human-MMP-9,"5,400 M^−1 s^−1"
